Several values for one entry are separate records, joined by “and”; a condition that tells them apart may be missing. Equal values may be shown once. Toxic doses and inconclusive results are not listed. No stated cut-off is given here; in the data, active means T/C of 150% or more; inactive means T/C below 125%.
System: L1210 leukemia ip in BDF1 mice, survival T/C
Experiment: NCI In Vivo Anticancer Drug Screen. Data for tumor model L1210 Leukemia (intraperitoneal) in B6D2F1 (BDF1) mice
Conditions: endpoint: mean survival time, higher = longer survival
Procedure, shortened: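 Antitumor effect is assessed in tumor-bearing animals. Survival in the compound arm is compared with a vehicle-dosed control arm and expressed as their quotient.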

[1] = dose: 100.0 mg/kg/injection, schedule: Q01DX009 (ip), vehicle: saline with Tween-80
[2] = dose: 200.0 mg/kg/injection, schedule: Q01DX009 (ip), vehicle: saline with Tween-80
[3] = dose: 400.0 mg/kg/injection, schedule: Q01DX009 (ip), vehicle: saline with Tween-80
[4] = dose: 100.0 mg/kg/injection, schedule: Q04DX003 (ip), vehicle: saline
[5] = dose: 200.0 mg/kg/injection, schedule: Q04DX003 (ip), vehicle: saline
[6] = dose: 400.0 mg/kg/injection, schedule: Q04DX003 (ip), vehicle: saline
[7] = dose: 100.0 mg/kg/injection, schedule: Q04DX003 (ip), vehicle: saline with Tween-80
[8] = dose: 200.0 mg/kg/injection, schedule: Q04DX003 (ip), vehicle: saline with Tween-80
[9] = dose: 400.0 mg/kg/injection, schedule: Q04DX003 (ip), vehicle: saline with Tween-80

Measured: T/C

O=C1NC2c3ccccc3CCC12 (configuration not stated)
inactive: dose: 100.0 mg/kg/injection, schedule: Q04DX002 (ip), vehicle: saline with Tween-80 102 % of control | dose: 200.0 mg/kg/injection, schedule: Q04DX002 (ip), vehicle: saline with Tween-80 100 % of control | dose: 400.0 mg/kg/injection, schedule: Q04DX002 (ip), vehicle: saline with Tween-80 96 % of control

O=c1[nH]cccc1[N+](=O)[O-]
inactive: [1] 95 % of control | [2] 90 % of control | [3] 95 % of control

OC1CCC(O)CC1 (configuration not stated)
inactive: [4] 100 % of control | [5] 100 % of control | [6] 115 % of control

CN(c1ccccc1)c1cc(=O)[nH]c(=O)[nH]1
inactive: dose: 100.0 mg/kg/injection, schedule: Q01DX001 (ip), vehicle: Klucel (hydroxypropylcellulose) (HPC) 95 % of control | dose: 200.0 mg/kg/injection, schedule: Q01DX001 (ip), vehicle: Klucel (hydroxypropylcellulose) (HPC) 104 % of control | dose: 400.0 mg/kg/injection, schedule: Q01DX001 (ip), vehicle: Klucel (hydroxypropylcellulose) (HPC) 99 % of control

Cc1cc(N(C)C)nc(SCc2ccc(Cl)cc2Cl)n1
inactive: dose: 200.0 mg/kg/injection, schedule: Q01DX Z (ip), vehicle: methylcellulose (MC) 105 % of control

C[N+](C)(C)CCN=C(N)N[N+](=O)[O-]
inactive: dose: 100.0 mg/kg/injection, schedule: Q01DX009 (ip), vehicle: saline 97 % of control | [4] 97 % of control | dose: 200.0 mg/kg/injection, schedule: Q01DX009 (ip), vehicle: saline 99 % of control | [5] 98 % of control | [6] 98 % of control

CCOC(=O)C(C(=O)O)C(C)C (configuration not stated)
inactive: dose: 100.0 mg/kg/injection, schedule: Q01DX001 (ip), vehicle: saline 97 % of control | dose: 200.0 mg/kg/injection, schedule: Q01DX001 (ip), vehicle: saline 93 % of control

CC1=C2C(=C(CBr)OS1(=O)=O)C(=O)c1ccccc12
inactive: [1] 92 % of control | [7] 96 % of control | [2] 92 % of control | [8] 103 % of control | [3] 95 % of control | [9] 94 % of control

O=S(=O)(CCCS(=O)(=O)Nc1ccccc1)Nc1ccccc1
inactive: dose: 100.0 mg/kg/injection, schedule: Q01DX001 (ip), vehicle: saline with Tween-80 103 % of control | dose: 200.0 mg/kg/injection, schedule: Q01DX001 (ip), vehicle: saline with Tween-80 97 % of control | dose: 400.0 mg/kg/injection, schedule: Q01DX001 (ip), vehicle: saline with Tween-80 90 % of control

CC1(c2ccc3ccccc3c2)OCC2(CCCC2)CO1
inactive: dose: 100.0 mg/kg/injection, schedule: Q04DX002 (ip), vehicle: gum acacia 117 % of control | dose: 200.0 mg/kg/injection, schedule: Q04DX002 (ip), vehicle: gum acacia 110 % of control | dose: 400.0 mg/kg/injection, schedule: Q04DX002 (ip), vehicle: gum acacia 103 % of control

COC(=O)NC1CC=CCC1I (configuration not stated)
inactive: [7] 100 % of control | [8] 102 % of control | [9] 102 % of control

NC(=S)N/N=C/c1nc2ccccc2[nH]c1=O
inactive: dose: 26.0 mg/kg/injection, schedule: Q03HX032 (ip), vehicle: saline with Tween-80 90 % of control and 91 % of control | dose: 40.0 mg/kg/injection, schedule: Q03HX032 (ip), vehicle: saline with Tween-80 95 % of control and 87 % of control | dose: 60.0 mg/kg/injection, schedule: Q03HX032 (ip), vehicle: saline with Tween-80 88 % of control and 90 % of control | dose: 90.0 mg/kg/injection, schedule: Q03HX032 (ip), vehicle: saline with Tween-80 94 % of control and 89 % of control | dose: 135.0 mg/kg/injection, schedule: Q03HX032 (ip), vehicle: saline with Tween-80 89 % of control

N#CC(Oc1ccccc1)c1ccccc1 (configuration not stated)
inactive: [7] 98 % of control | [9] 104 % of control
